Assay results from ChEMBL document CHEMBL3259794, “Towards the discovery of drug-like epigallocatechin gallate analogs as Hsp90 inhibitors” (Bioorg Med Chem Lett, 2014).

molecular target: T1, Heat shock protein HSP 90-beta (Homo sapiens, UniProt P08238); assay: Inhibition of HSP90 (unknown origin) by luciferase refolding assay
T1 sequence (P08238 whole entry): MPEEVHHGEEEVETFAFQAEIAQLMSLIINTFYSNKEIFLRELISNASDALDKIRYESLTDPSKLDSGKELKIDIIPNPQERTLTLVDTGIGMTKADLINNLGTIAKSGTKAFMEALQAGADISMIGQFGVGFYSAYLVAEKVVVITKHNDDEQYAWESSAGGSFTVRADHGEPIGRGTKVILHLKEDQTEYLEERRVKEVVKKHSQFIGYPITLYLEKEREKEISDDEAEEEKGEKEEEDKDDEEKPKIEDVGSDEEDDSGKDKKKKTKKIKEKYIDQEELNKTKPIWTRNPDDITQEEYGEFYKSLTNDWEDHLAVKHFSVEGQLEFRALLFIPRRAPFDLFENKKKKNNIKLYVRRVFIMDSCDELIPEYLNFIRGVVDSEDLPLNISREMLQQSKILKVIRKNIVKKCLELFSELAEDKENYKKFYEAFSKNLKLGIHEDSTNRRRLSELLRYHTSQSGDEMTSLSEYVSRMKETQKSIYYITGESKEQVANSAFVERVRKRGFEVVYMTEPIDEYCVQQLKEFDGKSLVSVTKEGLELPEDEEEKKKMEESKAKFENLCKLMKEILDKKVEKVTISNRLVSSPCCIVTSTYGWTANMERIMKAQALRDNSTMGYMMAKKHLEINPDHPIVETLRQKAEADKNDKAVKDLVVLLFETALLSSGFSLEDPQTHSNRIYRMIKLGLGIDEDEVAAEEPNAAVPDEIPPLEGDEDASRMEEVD

Compound	IC50 [µM]
O=C(O[C@@H]1Cc2c(O)cc(O)cc2O[C@@H]1c1ccc(O)c(O)c1)C1CC1	410
O=C(O[C@@H]1Cc2c(O)cc(O)cc2O[C@@H]1c1ccc(O)c(O)c1)[C@H]1CC[C@@H](F)CC1	65
O=C(O[C@H]1Cc2c(O)cc(O)cc2O[C@@H]1c1ccc(O)c(O)c1)C1CCCCC1	98
O=C(O[C@@H]1Cc2c(O)cc(O)cc2O[C@H]1c1cc(O)c(O)c(O)c1)c1cc(O)c(O)c(O)c1 [GALLOCATECHIN GALLATE]	34
O=C(O[C@@H]1Cc2c(O)cc(O)cc2O[C@@H]1c1ccc(O)c(O)c1)C1CCCCC1	81
O=C(O[C@@H]1Cc2c(O)cc(O)cc2O[C@@H]1c1cc(O)c(O)c(O)c1)C1CCCCC1	30
O=C(O[C@H]1Cc2c(O)cc(O)cc2O[C@@H]1c1ccc(O)c(O)c1)c1ccccc1	110
O=C(O[C@@H]1Cc2c(O)cc(O)cc2O[C@@H]1c1ccc(O)c(O)c1)[C@H]1CC[C@H](F)CC1	69
O=C(O[C@@H]1Cc2c(O)cc(O)cc2O[C@@H]1c1cc(O)c(O)c(O)c1)c1ccc(F)c(F)c1	58
O=C(O[C@@H]1Cc2c(O)cc(O)cc2O[C@@H]1c1ccc(O)c(O)c1)[C@H]1CC[C@@H](O)CC1	310
O=C(O[C@@H]1Cc2c(O)cc(O)cc2O[C@@H]1c1ccc(O)c(O)c1)[C@H]1CC[C@H](O)CC1	440
O=C(O[C@@H]1Cc2c(O)cc(O)cc2O[C@@H]1c1cc(O)c(O)c(O)c1)c1ccccc1	24
O=C(O[C@H]1Cc2c(O)cc(O)cc2O[C@@H]1c1ccccc1)c1cc(O)c(O)c(O)c1 (racemic)	150
O=C(N[C@@H]1Cc2c(O)cc(O)cc2O[C@@H]1c1cc(O)c(O)c(O)c1)c1ccccc1	75
O=C(O[C@@H]1Cc2c(O)cc(O)cc2O[C@@H]1c1cc(O)c(O)c(O)c1)c1ccncc1	64
O=C(O[C@@H]1Cc2c(O)cc(O)cc2O[C@@H]1c1cc(O)c(O)c(O)c1)c1ccc(F)cc1	41
O=C(O[C@@H]1Cc2ccccc2O[C@@H]1c1ccccc1)c1cc(O)c(O)c(O)c1 (racemic)	35
O=C(O[C@H]1Cc2c(O)cc(O)cc2O[C@@H]1c1ccccc1)c1ccccc1 (racemic)	120
O=C(O[C@@H]1Cc2c(O)cc(O)cc2O[C@@H]1c1cc(O)c(O)c(O)c1)c1cc(O)c(O)c(O)c1 [EPIGALOCATECHIN GALLATE]	155
O=C(O[C@H]1Cc2c(O)cc(O)cc2O[C@@H]1c1ccc(O)c(O)c1)[C@H]1CC[C@@H](O)CC1	280
O=S(=O)(N[C@@H]1Cc2c(O)cc(O)cc2O[C@@H]1c1cc(O)c(O)c(O)c1)c1ccccc1	44
O=C(O[C@@H]1Cc2c(O)cc(O)cc2O[C@@H]1c1ccccc1)c1ccccc1 (racemic)	63

molecular target: T1, Heat shock protein HSP 90-beta; assay: Ratio of EGCG IC50 to compound IC50 for HSP90 (unknown origin)

Compound	Ratio IC50
O=S(=O)(N[C@@H]1Cc2c(O)cc(O)cc2O[C@@H]1c1cc(O)c(O)c(O)c1)c1ccccc1	3
